Assay results reported in patent publication US20110053773A1, “METHODS OF IMPROVING NUTRITIONAL VALUE OF PLANTS” (UNIVERSITY OF TENNESSEE RESEARCH FOUNDATION, priority 2009, published 2011).

What was measured:
kale 'Red Russian' [1] = experiment: Visual injury of kale after insecticide, fungicide, PGRs, safeners (Example 4)
Method: (§1) Greenhouse and laboratory studies were conducted to ascertain the tolerance and nutritional quality differences following postemergence applications of the insecticide chlorpyrifos, the fungicide chlorothalonil, the PGRs mepiquat-chloride and paclobutrazol, and the safeners napthalic anhydride and isoxadifen-ethyl on kale ‘Red Russian’ and basil ‘Genovese’. Visual injury was rated based on general phytotoxicity, chlorosis, and visual stunting and each measurement was based on a percent scale from 0 to 100 where 0 equals no visual response and 100 equals complete plant death. Kale and basil were both harvested approximately 4 weeks after treatments and plants were pooled over replicates for content analysis of crude protein, crude amino acid content, acid detergent fiber, neutral detergent fiber, total fatty acids, and/or key mineral content (including Na, Ca, P, Mg, K, Fe, Mn, Zn, and Cu). In addition, the amounts of key individual amino acids (aspartic acid, threonine, glutamic acid, proline, glycine, cysteine, valine, leucine, isoleucine, methionine, and lysine) and composite classifications of fatty acid (saturated fatty acids, monounsaturated fatty acids, polyunsaturated fatty acids) were also analyzed from these sub-samples for kale (Tables 10-14).

basil 'Genovese' = experiment: Visual injury of basil after insecticide, fungicide, PGRs, safeners (Example 4)
Summary of the method: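 Plants received postemergence sprays of one insecticide, one fungicide, two PGRs or two safeners in the greenhouse. About 4 weeks later they were harvested, and replicates were pooled for laboratory content analysis. Injury was rated visually on a 0–100% scale.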

kale 'Red Russian' [2] = experiment: Content analysis of kale: protein, amino acids, fiber, fatty acids, minerals (Example 4, Tables 12-14); assay type: in vivo; conditions: 28 DA-A
Method: as §1

[3] = 7 DA-A, rates g ai/ha: chlropyrifos 1120, chlorothalonil 2630, paclobutrazol 3.23, mepiquat-chloride 12.3, + NIS 0.25 % v/v
[4] = 7 DA-A, rates g ai/ha: chlropyrifos 3370, chlorothalonil 7900, paclobutrazol 9.7, mepiquat-chloride 37, + NIS 0.25 % v/v
[5] = 14 DA-A, rates g ai/ha: chlropyrifos 1120, chlorothalonil 2630, paclobutrazol 3.23, mepiquat-chloride 12.3, + NIS 0.25 % v/v
[6] = 14 DA-A, rates g ai/ha: chlropyrifos 3370, chlorothalonil 7900, paclobutrazol 9.7, mepiquat-chloride 37, + NIS 0.25 % v/v
[7] = 28 DA-A, rates g ai/ha: chlropyrifos 1120, chlorothalonil 2630, paclobutrazol 3.23, mepiquat-chloride 12.3, + NIS 0.25 % v/v
[8] = 28 DA-A, rates g ai/ha: chlropyrifos 3370, chlorothalonil 7900, paclobutrazol 9.7, mepiquat-chloride 37, + NIS 0.25 % v/v
[9] = 7 DA-A, rates g ai/ha: chlropyrifos 1120, chlorothalonil 2630, paclobutrazol 3.23, mepiquat-chloride 12.3, Isoxadifen 8, Napthalic anhydride 264, + NIS 0.25 % v/v
[10] = 7 DA-A, rates g ai/ha: chlropyrifos 3370, chlorothalonil 7900, paclobutrazol 9.7, mepiquat-chloride 37, Isoxadifen 16, Napthalic anhydride 527, + NIS 0.25 % v/v
[11] = 14 DA-A, rates g ai/ha: chlropyrifos 1120, chlorothalonil 2630, paclobutrazol 3.23, mepiquat-chloride 12.3, Isoxadifen 8, Napthalic anhydride 264, + NIS 0.25 % v/v
[12] = 14 DA-A, rates g ai/ha: chlropyrifos 3370, chlorothalonil 7900, paclobutrazol 9.7, mepiquat-chloride 37, Isoxadifen 16, Napthalic anhydride 527, + NIS 0.25 % v/v
[13] = 28 DA-A, rates g ai/ha: chlropyrifos 1120, chlorothalonil 2630, paclobutrazol 3.23, mepiquat-chloride 12.3, Isoxadifen 8, Napthalic anhydride 264, + NIS 0.25 % v/v
[14] = 28 DA-A, rates g ai/ha: chlropyrifos 3370, chlorothalonil 7900, paclobutrazol 9.7, mepiquat-chloride 37, Isoxadifen 16, Napthalic anhydride 527, + NIS 0.25 % v/v
[15] = first-listed rate g ai/ha: chlropyrifos ###, chlorothalonil ###, paclobutrazol 3.2, mepiquat-chloride 12, + NIS 0.3 % v/v
[16] = rates g ai/ha: chlropyrifos 1120, chlorothalonil 2630, paclobutrazol 3.23, mepiquat-chloride 12.3, + NIS 0.25 % v/v

For `N#Cc1c(Cl)c(Cl)c(Cl)c(C#N)c1Cl` [chlorothalonil], which “Phytotoxicity Chlorosis” value (kale 'Red Russian' [1]; [3]) is on record?
The value was 0%.

What about the “Phytotoxicity General” value (kale 'Red Russian' [1]; [3]) of the same compound?
Its value is 15%.

What about the “Phytotoxicity Stunting” value (kale 'Red Russian' [1]; [3]) of the same compound?
Its value is 0%.

And the “Phytotoxicity Chlorosis” value (kale 'Red Russian' [1]; [4])?
The value was 0%.

And the “Phytotoxicity General” value (kale 'Red Russian' [1]; [4])?
The value was 9%.

What about the “Phytotoxicity Stunting” value (kale 'Red Russian' [1]; [4]) of the same compound?
The value was 1%.

What about the “Phytotoxicity Chlorosis” value (kale 'Red Russian' [1]; [5]) of the same compound?
The value was 10%.

What about the “Phytotoxicity General” value (kale 'Red Russian' [1]; [5]) of the same compound?
The value was 0%.

And the “Phytotoxicity Stunting” value (kale 'Red Russian' [1]; [5])?
Its value is 5%.

And the “Phytotoxicity Chlorosis” value (kale 'Red Russian' [1]; [6])?
The value was 6%.

What about the “Phytotoxicity General” value (kale 'Red Russian' [1]; [6]) of the same compound?
Its value is 1%.

What about the “Phytotoxicity Stunting” value (kale 'Red Russian' [1]; [6]) of the same compound?
Its value is 5%.

What about the “Phytotoxicity Chlorosis” value (kale 'Red Russian' [1]; [7]) of the same compound?
The value was 3%.

And the “Phytotoxicity General” value (kale 'Red Russian' [1]; [7])?
Its value is 5%.

And the “Phytotoxicity Stunting” value (kale 'Red Russian' [1]; [7])?
Its value is 6%.

What about the “Phytotoxicity Chlorosis” value (kale 'Red Russian' [1]; [8]) of the same compound?
Its value is 0%.

What about the “Phytotoxicity General” value (kale 'Red Russian' [1]; [8]) of the same compound?
The value was 3%.

What about the “Phytotoxicity Stunting” value (kale 'Red Russian' [1]; [8]) of the same compound?
The value was 8%.

And the “Phytotoxicity Chlorosis” value (basil 'Genovese'; [9])?
Its value is 5%.

And the “Phytotoxicity General” value (basil 'Genovese'; [9])?
Its value is 5%.

What about the “Phytotoxicity Stunting” value (basil 'Genovese'; [9]) of the same compound?
The value was 5%.

And the “Phytotoxicity Chlorosis” value (basil 'Genovese'; [10])?
Its value is 15%.

And the “Phytotoxicity General” value (basil 'Genovese'; [10])?
The value was 3%.

What about the “Phytotoxicity Stunting” value (basil 'Genovese'; [10]) of the same compound?
Its value is 5%.

What about the “Phytotoxicity Chlorosis” value (basil 'Genovese'; [11]) of the same compound?
Its value is 5%.

And the “Phytotoxicity General” value (basil 'Genovese'; [11])?
Its value is 0%.

And the “Phytotoxicity Stunting” value (basil 'Genovese'; [11])?
The value was 8%.

What about the “Phytotoxicity Chlorosis” value (basil 'Genovese'; [12]) of the same compound?
Its value is 5%.

And the “Phytotoxicity General” value (basil 'Genovese'; [12])?
The value was 2%.

And the “Phytotoxicity Stunting” value (basil 'Genovese'; [12])?
The value was 7%.

And the “Phytotoxicity Chlorosis” value (basil 'Genovese'; [13])?
The value was 5%.

What about the “Phytotoxicity General” value (basil 'Genovese'; [13]) of the same compound?
Its value is 10%.

And the “Phytotoxicity Stunting” value (basil 'Genovese'; [13])?
The value was 7%.

And the “Phytotoxicity Chlorosis” value (basil 'Genovese'; [14])?
Its value is 10%.

What about the “Phytotoxicity General” value (basil 'Genovese'; [14]) of the same compound?
The value was 3%.

What about the “Phytotoxicity Stunting” value (basil 'Genovese'; [14]) of the same compound?
Its value is 10%.

What about the “Alanine, Percent Increase over the Untreated Check (on a % dry matter basis)” value (kale 'Red Russian' [2]; [15]) of the same compound?
Its value is 3 % check.

And the “Aspartic acid, Percent Increase over the Untreated Check (on a % dry matter basis)” value (kale 'Red Russian' [2]; [15])?
The value was 2 % check.

And the “Cysteine, Percent Increase over the Untreated Check (on a % dry matter basis)” value (kale 'Red Russian' [2]; [15])?
The value was −6 % check.

What about the “Glutamic acid, Percent Increase over the Untreated Check (on a % dry matter basis)” value (kale 'Red Russian' [2]; [15]) of the same compound?
Its value is 5 % check.

What about the “Glycine, Percent Increase over the Untreated Check (on a % dry matter basis)” value (kale 'Red Russian' [2]; [15]) of the same compound?
Its value is 0 % check.

What about the “Iso-leucine, Percent Increase over the Untreated Check (on a % dry matter basis)” value (kale 'Red Russian' [2]; [15]) of the same compound?
Its value is 4 % check.

And the “Leucine, Percent Increase over the Untreated Check (on a % dry matter basis)” value (kale 'Red Russian' [2]; [15])?
The value was 4 % check.

And the “Lysine, Percent Increase over the Untreated Check (on a % dry matter basis)” value (kale 'Red Russian' [2]; [15])?
Its value is 5 % check.

And the “Methionine, Percent Increase over the Untreated Check (on a % dry matter basis)” value (kale 'Red Russian' [2]; [15])?
The value was 2 % check.

And the “Proline, Percent Increase over the Untreated Check (on a % dry matter basis)” value (kale 'Red Russian' [2]; [15])?
The value was 6 % check.

And the “Threonine, Percent Increase over the Untreated Check (on a % dry matter basis)” value (kale 'Red Russian' [2]; [15])?
The value was 3 % check.

And the “Total Amino acids, Percent Increase over the Untreated Check (on a % dry matter basis)” value (kale 'Red Russian' [2]; [15])?
The value was 3 % check.

What about the “Total Protein, Percent Increase over the Untreated Check (on a % dry matter basis)” value (kale 'Red Russian' [2]; [15]) of the same compound?
Its value is 1 % check.

And the “Valine, Percent Increase over the Untreated Check (on a % dry matter basis)” value (kale 'Red Russian' [2]; [15])?
The value was 4 % check.

And the “ADF, Percent Increase Over the Untreated Check (on a % dry matter basis)” value (kale 'Red Russian' [2]; [16])?
Its value is 9 % check.

And the “Calcium, Percent Increase Over the Untreated Check (on a % dry matter basis)” value (kale 'Red Russian' [2]; [16])?
Its value is −6 % check.

And the “Copper, Percent Increase Over the Untreated Check (on a % dry matter basis)” value (kale 'Red Russian' [2]; [16])?
Its value is 6 % check.

And the “Iron, Percent Increase Over the Untreated Check (on a % dry matter basis)” value (kale 'Red Russian' [2]; [16])?
Its value is −1 % check.

And the “Magnesium, Percent Increase Over the Untreated Check (on a % dry matter basis)” value (kale 'Red Russian' [2]; [16])?
Its value is −3 % check.

What about the “Manganese, Percent Increase Over the Untreated Check (on a % dry matter basis)” value (kale 'Red Russian' [2]; [16]) of the same compound?
The value was 3 % check.

And the “NDF, Percent Increase Over the Untreated Check (on a % dry matter basis)” value (kale 'Red Russian' [2]; [16])?
Its value is −8 % check.

What about the “Phosphorous, Percent Increase Over the Untreated Check (on a % dry matter basis)” value (kale 'Red Russian' [2]; [16]) of the same compound?
The value was 0 % check.
